Laboratory results as given in publication PMC5896373 (Molecular Pharmacology, 2018).
Values joined by “and” are separate entries in the source; they are usually repeats but may differ in a detail not shown here. Equal entries are not always repeated.

How the values were obtained:
P2X7-2Nβ receptor = biological target: T1, P2X7-2Nβ receptor (Homo sapiens, UniProt Q99572, I21V/M24R/N16P/N25R/Q22R/R20V/S23N/T19I/Y26L); assay: Two-electrode voltage clamp of ATP-evoked currents in Xenopus oocytes; format: cell-based; conditions: inhibition of EC90 ATP response
T1 construct: expressed in transfected cells; host or cells: Xenopus laevis oocytes (cRNA injection)
Method: The production of the correct mutations and absence of coding errors was determined by DNA sequencing (Automated ABI Sequencing Service, University of Leicester, UK). cRNA was generated for the mutants and 50 nl (50 ng) was injected into manually defoliculated stage V Xenopus laevis oocytes using an Inject+Matic microinjector (J.A. Gabay, Inject+Matic, Geneva, Switzerland). Injected oocytes were stored at 16°C in ND96 buffer [in millimolar concentrations, NaCl 96, KCl 2, CaCl2 1.8, MgCl2 1, sodium pyruvate 5, and HEPES 5 (pH 7.6) supplemented with 50 μg/ml gentamycin and 50 μg/ml tetracycline]. Three to seven days postinjection two-electrode voltage clamp recordings were made from oocytes bathed in divalent-free ND96 buffer (in millimolar concentrations, NaCl 96, KCl 2, sodium pyruvate 5, HEPES 5, and 0.1 flufenamic acid, pH 7.6). Oocytes were voltage clamped at a holding potential of −60 mV with a GeneClamp500B amplifier (Molecular Devices).
(§1) Inhibition by the antagonists was expressed as the percentage of the peak current amplitude of an EC90 concentration of ATP recorded before the application of antagonist (ATP gave reproducible responses to ATP in the absence of antagonist). Inhibition curves were fitted with the Hill equation (variable slope) using GraphPad Prism 6 (GraphPad Software, San Diego, CA). […] Individual concentration-response curves were generated for individual experiments, and statistical analysis was carried out on the data generated. […] Data are shown as mean ± S.E.M. In all cases n ≥ 3 for all data points.

P2X7-2Nβ 73–79 deletion = biological target: T2, P2X7-2Nβ 73–79 deletion (Homo sapiens, UniProt Q99572, DEL73-79/I21V/M24R/N16P/N25R/Q22R/R20V/S23N/T19I/Y26L); assay: as above; format: cell-based
T2 construct: expressed in transfected cells; host or cells: Xenopus laevis oocytes (cRNA injection)
T2 sequence (Q99572 with tags, fused parts or gaps N16P/T19I/R20V/I21V/Q22R/S23N/M24R/N25R/Y26L/DEL73-79): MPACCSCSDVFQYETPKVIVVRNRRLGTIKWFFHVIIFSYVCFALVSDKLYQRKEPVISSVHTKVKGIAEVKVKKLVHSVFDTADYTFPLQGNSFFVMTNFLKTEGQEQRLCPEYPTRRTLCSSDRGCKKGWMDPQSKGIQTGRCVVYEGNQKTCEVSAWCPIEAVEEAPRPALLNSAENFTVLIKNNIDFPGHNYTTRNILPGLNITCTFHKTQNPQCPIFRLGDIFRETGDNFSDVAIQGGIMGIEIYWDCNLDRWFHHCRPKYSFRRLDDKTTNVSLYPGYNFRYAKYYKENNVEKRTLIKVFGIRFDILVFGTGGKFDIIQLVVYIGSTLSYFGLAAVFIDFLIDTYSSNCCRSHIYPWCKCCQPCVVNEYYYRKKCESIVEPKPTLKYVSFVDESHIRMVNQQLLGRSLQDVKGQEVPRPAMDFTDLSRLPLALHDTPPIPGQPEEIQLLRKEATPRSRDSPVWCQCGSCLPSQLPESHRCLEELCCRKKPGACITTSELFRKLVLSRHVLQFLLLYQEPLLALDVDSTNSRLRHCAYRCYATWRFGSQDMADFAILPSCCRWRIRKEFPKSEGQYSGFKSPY
Method: (§2) Additional point mutants were made using the QuikChange mutagenesis kit (Stratagene California, La Jolla, CA). The production of the correct mutations and absence of coding errors was determined by DNA sequencing (Automated ABI Sequencing Service, University of Leicester, UK). cRNA was generated for the mutants and 50 nl (50 ng) was injected into manually defoliculated stage V Xenopus laevis oocytes using an Inject+Matic microinjector (J.A. Gabay, Inject+Matic, Geneva, Switzerland). Injected oocytes were stored at 16°C in ND96 buffer [in millimolar concentrations, NaCl 96, KCl 2, CaCl2 1.8, MgCl2 1, sodium pyruvate 5, and HEPES 5 (pH 7.6) supplemented with 50 μg/ml gentamycin and 50 μg/ml tetracycline]. Three to seven days postinjection two-electrode voltage clamp recordings were made from oocytes bathed in divalent-free ND96 buffer (in millimolar concentrations, NaCl 96, KCl 2, sodium pyruvate 5, HEPES 5, and 0.1 flufenamic acid, pH 7.6). Oocytes were voltage clamped at a holding potential of −60 mV with a GeneClamp500B amplifier (Molecular Devices).
as §1

[1] = biological target: T3, chimeric P2X7/1 receptor 170–177 (Homo sapiens, UniProt Q99572, A172V/A176I/E174D/E175D/I170V/I21V/M24R/N16P/N25R/Q22R/R20V/S23N/T19I/V173D/Y26L); assay: as above; format: cell-based
T3 construct: expressed in transfected cells; host or cells: Xenopus laevis oocytes (cRNA injection)
T3 sequence (Q99572 1-595 N16P/T19I/R20V/I21V/Q22R/S23N/M24R/N25R/Y26L/I170V/A172V/V173D/E174D/E175D/A176I): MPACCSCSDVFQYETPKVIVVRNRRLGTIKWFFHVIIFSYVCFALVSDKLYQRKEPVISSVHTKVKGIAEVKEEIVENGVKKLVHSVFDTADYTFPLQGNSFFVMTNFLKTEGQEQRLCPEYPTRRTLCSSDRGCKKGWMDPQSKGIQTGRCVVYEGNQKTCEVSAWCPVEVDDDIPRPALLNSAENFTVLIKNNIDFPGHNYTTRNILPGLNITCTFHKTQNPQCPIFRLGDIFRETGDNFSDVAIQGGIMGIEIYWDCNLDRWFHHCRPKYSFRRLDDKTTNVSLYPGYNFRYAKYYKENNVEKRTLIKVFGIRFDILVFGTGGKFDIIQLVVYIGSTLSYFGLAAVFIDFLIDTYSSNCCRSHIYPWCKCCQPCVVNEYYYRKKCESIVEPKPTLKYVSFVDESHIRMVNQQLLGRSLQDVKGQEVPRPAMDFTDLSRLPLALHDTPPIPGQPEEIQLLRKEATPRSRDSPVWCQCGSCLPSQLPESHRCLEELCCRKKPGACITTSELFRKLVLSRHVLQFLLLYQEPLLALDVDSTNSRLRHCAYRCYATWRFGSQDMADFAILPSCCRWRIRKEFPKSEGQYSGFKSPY
Method: as §2, §1

P2X7R point mutant V304C = biological target: T4, P2X7R point mutant V304C (Homo sapiens, UniProt Q99572, I21V/M24R/N16P/N25R/Q22R/R20V/S23N/T19I/V304C/Y26L); assay: as above; format: cell-based; conditions: EC90 ATP, mean ± S.E.M.
T4 construct: expressed in transfected cells; host or cells: Xenopus laevis oocytes (cRNA injection)
Method: Injected oocytes were stored at 16°C in ND96 buffer [in millimolar concentrations, NaCl 96, KCl 2, CaCl2 1.8, MgCl2 1, sodium pyruvate 5, and HEPES 5 (pH 7.6) supplemented with 50 μg/ml gentamycin and 50 μg/ml tetracycline]. Three to seven days postinjection two-electrode voltage clamp recordings were made from oocytes bathed in divalent-free ND96 buffer (in millimolar concentrations, NaCl 96, KCl 2, sodium pyruvate 5, HEPES 5, and 0.1 flufenamic acid, pH 7.6). Oocytes were voltage clamped at a holding potential of −60 mV with a GeneClamp500B amplifier (Molecular Devices).
as §1

P2X7R point mutant Y299C = biological target: T5, P2X7R point mutant Y299C (Homo sapiens, UniProt Q99572, I21V/M24R/N16P/N25R/Q22R/R20V/S23N/T19I/Y26L/Y299C); assay: as above; format: cell-based; conditions: EC90 ATP, mean ± S.E.M.
T5 construct: expressed in transfected cells; host or cells: Xenopus laevis oocytes (cRNA injection)

hP2X1R = biological target: T6, hP2X1R (Homo sapiens, UniProt P51575); assay: as above; format: cell-based
T6 construct: expressed in transfected cells; host or cells: Xenopus laevis oocytes (cRNA injection)

[2] = biological target: T7, chimeric P2X7/1 receptor 210–217 (Homo sapiens, UniProt Q99572, G211E/I214K/I21V/INS213AAHM/L212V/M24R/N16P/N25R/P210E/Q22R/R20V/S23N/T19I/T217L/Y26L); parameters: method as in Allsopp et al., 2017; conditions: chimera 210–217; ref Allsopp et al., 2017; cited from earlier work
T7 construct: expressed in transfected cells; host or cells: Xenopus laevis oocytes (cRNA injection)
T7 sequence (Q99572 with tags, fused parts or gaps N16P/T19I/R20V/I21V/Q22R/S23N/M24R/N25R/Y26L/P210E/G211E/L212V/INS213AAHM/I214K/T217L): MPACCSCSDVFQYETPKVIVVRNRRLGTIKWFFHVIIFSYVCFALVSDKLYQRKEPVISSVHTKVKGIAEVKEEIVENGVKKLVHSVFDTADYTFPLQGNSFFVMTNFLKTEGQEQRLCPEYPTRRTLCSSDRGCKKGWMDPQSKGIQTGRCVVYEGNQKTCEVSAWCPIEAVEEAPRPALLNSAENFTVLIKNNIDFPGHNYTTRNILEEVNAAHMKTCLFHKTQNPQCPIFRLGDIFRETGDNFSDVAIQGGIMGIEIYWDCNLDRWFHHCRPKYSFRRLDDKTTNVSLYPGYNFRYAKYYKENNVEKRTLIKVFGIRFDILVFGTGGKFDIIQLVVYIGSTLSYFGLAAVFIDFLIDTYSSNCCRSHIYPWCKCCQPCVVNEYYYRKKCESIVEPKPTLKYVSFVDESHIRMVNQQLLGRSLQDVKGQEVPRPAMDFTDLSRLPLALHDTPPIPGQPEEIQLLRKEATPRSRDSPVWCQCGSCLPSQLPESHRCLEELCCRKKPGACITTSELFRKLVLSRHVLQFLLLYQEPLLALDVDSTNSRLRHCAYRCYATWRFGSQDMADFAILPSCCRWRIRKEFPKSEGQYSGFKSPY

[3] = tested on: chimeric P2X7/1 receptor 295–310; assay: cell-based; format: cell-based, human; conditions: chimera 295–310
Method: as §2, §1

T1 sequence (Q99572 whole entry N16P/T19I/R20V/I21V/Q22R/S23N/M24R/N25R/Y26L): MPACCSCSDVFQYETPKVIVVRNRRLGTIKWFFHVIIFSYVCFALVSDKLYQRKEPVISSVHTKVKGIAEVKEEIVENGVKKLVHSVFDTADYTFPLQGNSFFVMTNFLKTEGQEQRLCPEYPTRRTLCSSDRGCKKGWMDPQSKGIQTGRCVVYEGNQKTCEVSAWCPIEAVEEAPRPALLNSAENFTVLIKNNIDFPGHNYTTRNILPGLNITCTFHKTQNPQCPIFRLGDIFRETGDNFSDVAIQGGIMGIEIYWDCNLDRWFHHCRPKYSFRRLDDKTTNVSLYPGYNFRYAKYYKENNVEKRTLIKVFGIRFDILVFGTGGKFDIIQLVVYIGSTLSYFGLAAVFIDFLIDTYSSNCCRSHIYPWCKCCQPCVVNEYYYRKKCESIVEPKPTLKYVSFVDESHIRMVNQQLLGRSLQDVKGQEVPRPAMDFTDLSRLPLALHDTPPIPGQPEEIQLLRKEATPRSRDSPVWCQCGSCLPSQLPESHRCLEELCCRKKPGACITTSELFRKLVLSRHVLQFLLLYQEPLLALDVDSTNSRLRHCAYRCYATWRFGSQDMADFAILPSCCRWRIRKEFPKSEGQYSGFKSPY
T4 sequence (Q99572 whole entry N16P/T19I/R20V/I21V/Q22R/S23N/M24R/N25R/Y26L/V304C): as the sequence (Q99572 whole entry N16P/T19I/R20V/I21V/Q22R/S23N/M24R/N25R/Y26L) above, with V304C counted along it
T5 sequence (Q99572 whole entry N16P/T19I/R20V/I21V/Q22R/S23N/M24R/N25R/Y26L/Y299C): as the sequence (Q99572 whole entry N16P/T19I/R20V/I21V/Q22R/S23N/M24R/N25R/Y26L) above, with Y299C counted along it
T6 sequence (P51575 whole entry): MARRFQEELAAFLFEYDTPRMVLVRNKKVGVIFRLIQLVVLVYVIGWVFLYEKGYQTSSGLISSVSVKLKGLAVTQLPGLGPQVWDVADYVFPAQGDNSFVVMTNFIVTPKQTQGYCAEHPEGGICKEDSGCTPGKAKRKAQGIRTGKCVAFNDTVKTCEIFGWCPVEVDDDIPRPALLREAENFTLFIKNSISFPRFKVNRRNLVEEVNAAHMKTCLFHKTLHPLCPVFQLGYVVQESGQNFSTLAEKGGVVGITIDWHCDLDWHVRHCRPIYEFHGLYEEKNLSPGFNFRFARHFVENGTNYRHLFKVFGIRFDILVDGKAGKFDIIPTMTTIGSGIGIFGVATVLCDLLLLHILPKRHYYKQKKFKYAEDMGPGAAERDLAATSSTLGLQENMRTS

SMILES	IC50 (P2X7-2Nβ receptor)	IC50 (P2X7-2Nβ 73–79 deletion) [nM]	IC50 [1] [nM]	IC50 (P2X7R point mutant V304C) [nM]	IC50 (P2X7R point mutant Y299C) [nM]	inhibition of ATP (EC90)-evoked currents (hP2X1R)	effect on antagonist sensitivity [2]	effect on antagonist sensitivity relative to P2X7-2Nβ (P2X7-2Nβ 73–79 deletion; 73–79 deletion)	effect on antagonist potency relative to P2X7-2Nβ ([1]; chimera 170–177)	fold decrease in antagonist sensitivity relative to P2X7-2Nβ [3] [fold]
Cl.Clc1cccc(-c2nnnn2Cc2cccnc2)c1Cl.O [A438079, 3-(5-(2,3-dichlorophenyl)-1H-tetrazol-1-yl)methyl pyridine hydrochloride hydrate]	933 nM and 1000 nM	200	631	63.1	251	ineffective				
Cl.Cl.O=C(CC12CC3CC(CC(C3)C1)C2)Nc1cccc2nc(NCCNCCO)ccc12 [AZ10606120, N-[2-[[2-[(2-hydroxyethyl)amino]ethyl]amino]-5-quinolinyl]-2-tricyclo[3.3.1.13,7]dec-1-ylacetamide dihydrochloride]							no change			
COc1ccc(CC(=O)NC(N=C(NC#N)Nc2cccc3ncccc23)C(C)(C)C)cc1OC (stereo not drawn) [A740003, N-[1-[[(cyanoamino)(5-quinolinylamino)methylene]amino]-2,2-dimethylpropyl]-3,4-dimethoxybenzeneacetamide]	79.4 nM	79.4	63.1	100	100			unaffected	no effect	~5
